Entries after “also recorded” stand apart in the source; their conditions may differ. Where a SMILES comes first, the peptide text is derived from it. Bridges are numbered along the chain shown (N, C = ends).
Experiments:
[1] = test system: Madin-Darby canine kidney (MDCK) cell monolayers; conditions: Val6 mutation; cited from earlier work
From the text: Currently, the mechanism of binding as well as the EC1 binding site of ADT peptides have not been elucidated; thus, this study was aimed at using nuclear magnetic resonance (NMR) and molecular docking experiments to determine ADTC5 binding properties (Table 1) on EC1. […] Therefore, the Val6 residue was mutated to the Glu6 or Tyr6 re ...

[2] = test system: blood-brain barrier (BBB); conditions: in-situ rat brain perfusion; cited from earlier work
[3] = test system: blood-brain barrier (BBB); conditions: cited from earlier work
From the text: In addition, Gd-DTPA delivery to the brain was enhanced when co-administered with ADTC5 in living mice upon detection with magnetic resonance imaging (MRI). […] Different cadherin peptides produced different durations of the BBB opening for different sizes of del ...

[4] = target: T1, EC1 domain of human E-cadherin (Homo sapiens, UniProt P12830); assay: 1H-15N HSQC NMR titration of 15N-labeled EC1 (chemical shift perturbation, CSP); assay type: binding
T1 construct: Strep-tag I (WSHPQFEK) (C); factor Xa cleavage site (IEGR) linker (C); made in house; host or cells: E. coli BL21(DE3), plasmid pASK-IBA6
T1 sequence (P12830 155-292): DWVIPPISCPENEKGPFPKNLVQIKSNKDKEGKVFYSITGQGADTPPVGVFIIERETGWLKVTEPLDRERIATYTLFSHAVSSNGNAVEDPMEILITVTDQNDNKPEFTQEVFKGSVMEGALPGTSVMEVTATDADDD
From the text: Our previous method was used to express and purify the ^15N-labeled EC1 domain [22]. Briefly, the plasmid (pASK-IBA6, Genosys, Woodland, TX) contains DNA construct of 138 amino acid residues. The EC1 domain has 110 residues connected to 28 amino acids from the EC2 domain sequence at the C-terminus tail followed by a WSHPQFEK sequence of Streptag I that is linked by an IEGR sequence for a factor Xa cleavage. Then, the plasmid was transformed into competent E. coli BL21(DE3) cells (New England Biosciences, Ipswich, MA). The cells were incubated at 37°C overnight on a plate with lysogeny broth (LB) agar containing […] ampicillin. A single colony of E. coli cells was picked and incubated in 10 mL of LB media followed by the addition of 10 μL ampicillin at 100 mg/mL concentration. Then, the mixture was incubated in an orbital shaker at 250 rpm and 37°C. ^15N-labeled NH4Cl was added to 250 mL of M9 minimal media in 1 L Erlenmeyer flask to produce the ^15N-labeled EC1 domain. A 24 μL of anhydrotetracycline (2 mg/mL; Promega Inc., Madison, WI) was spiked into the cell culture when it reached OD550 of 0.5–0.6 to induce the EC1 protein expression. Then, the cell mixture was incubated at 30°C for 6–7 h followed by cell harvesting using centrifugation at 4,500 xg. The resulting cell pellets were stored at −80°C.
For isolation of purified ^15N-EC1, E. coli cell pellets were lysed using 20,000 psi French press (Thermo Electron Corporation) in 10 mL of binding buffer. This binding buffer consists of 150 mM NaCl, 1.0 mM EDTA, 0.02% NaN3, and 100 mM Tris-HCl at pH = 8.0. The mixture was centrifuged at 21,000 xg, 4°C, and 1 h to get rid of cellular debris. The EC1 domain was in the supernatant and the Amicon Ultra protein concentrator [10 kDa molecular weight (MW) cut-off, EMD Millipore, Billerica, MA] was used to concentrate the protein upon centrifugation at 4,500 rpm, 20 min, and 4°C. […] The purity of pooled EC1 fractions was evaluated by SDS-PAGE. Protein concentration was calculated using UV spectrometry at 280 nm (coefficient absorption = 19,480 M^–1 cm^–1). […]

BBB tight junctions = conditions: cited from earlier work
From the text: As BBBMs, the in vivo activities of ADT and HAV peptides to modulate the BBB were transient and reversible. […] Different cadherin peptides produced different durations of the BBB opening for different sizes of del ...

Which “modulatory activity in MDCK cell monolayers” value [1] does the source give for CC(=O)N[C@H]1CSSC[C@@H](C(N)=O)NC(=O)[C@H](C(C)C)NC(=O)[C@@H]2CCCN2C(=O)[C@@H]2CCCN2C(=O)[C@H]([C@@H](C)O)NC(=O)[C@H](CC(=O)O)NC1=O [ADTC5] (Ac-CDTPPVC-NH2; disulfide 1-7) here?
Its value is “mutation of this residue reduced inhibitory activity in preventing the resealing of the paracellular pathway”.

And the “delivery of various molecules to the brain” value [2]?
Its value is “enhanced the delivery of various molecules to the brain”.

And the “duration of paracellular porosity for Galbumin” value ([3]; 65 kDa Galbumin)?
Its value is “less than 20 min”.

What about the “delivery of mAb to brain” value ([3]; 150 kDa mAb) of the same molecule?
Its value is “had to be administered together with 150 kDa mAb for delivering mAb to the brain”.

And the “Gd-DTPA delivery to the brain” value ([3]; co-administered, living mice, MRI)?
The value was “enhanced”.

What about the “brain deposition of peptides, Galbumin and mAb” value ([3]; i.v., co-administered, mice, mass spectrometry, NIRF, MRI) of the same molecule?
The value was “significantly enhanced brain deposition of peptides, Gd-labeled albumin (Galbumin), and mAb”.

And the “duration of in vivo paracellular opening for Gd-DTPA” value ([3]; small molecule Gd-DTPA)?
The value was “less than 4 h”.

And the “EC1 residues with largest/significant NH chemical shift perturbation” value ([4]; 1H-15N HSQC titration, pH 6.0)?
Its value is “One of the dramatic changes was seen for residue I4 with larger CSP compared to other residues; also recorded: In addition to the strong effect of the NH of I4 residue, significant shifts were also observed in the NHs of I38, I53, V98, D103, and F113 residues; also recorded: large CSP changes on D103, and F113 residues at the C-terminal tail; also recorded: large CSP changes were also observed at the I4, I7, and S8 residues at the N-terminus domain”.

What about the “relative binding affinity to EC1” value ([4]; comparison among ADTC5, ADTC7, ADTC9) of the same molecule?
Its value is “highest binding affinity to the EC1 domain of E-cadherin compared to ADTC7 and ADTC9; also recorded: binds better to the EC1 domain compared to ADTC7 and ADTC9”.

What about the “CSP result in words” value ([4]; comparison of CSP profiles / conformational effect, 1H-15N HSQC) of the same molecule?
Its value is “influences the conformation of the EC1 C-terminal tail; also recorded: All seven clusters have consistent high CSPs on active residues T97, V98, and D103; also recorded: binding of ADTC5 to EC1 may induce conformational change at the C-terminal tail; also recorded: binding of ADTC5 can cause conformational change at the N-terminal region or domain swapping region”.

What about the “anatomical structure of BBB tight junctions” value (BBB tight junctions) of the same molecule?
Its value is “did not change”.

From paper PMC11309765, “Mechanism of the blood-brain barrier modulation by cadherin peptides” (Exploration of drug science, 2024)
